Converted amounts (≈) assume the structure as drawn. Like-named read-outs stand apart in the source and are kept apart here.
Assays:
Assay type in all cases: physicochemical
[1] = Precipitation upon dilution of pre-concentrate into saline; conditions: pre-concentrated formulation of 40% TWEEN 80 and 60% PEG 400
[2] = Chemical stability in solution
[3] = Solubility of Compound (I) in water and solubilizing vehicles

Q: With O=C1c2cc(-c3ccc(OC(F)(F)F)cc3)ccc2OCCN1Cc1ncccn1 [Compound (I), 4-(pyrimidin-2-ylmethyl)-7-(4-(trifluoromethoxy)phenyl)-3,4-dihydrobenzo[f][1,4]oxazepin-5(2H)-one] as the compound, how does the “concentration needed to avoid precipitation upon dilution” value [1] read?
A: ≤ 30000 µg/mL

Q: And the “chemical stability in solution” value [2]?
A: chemically stable in solution

Q: And the solubility ([3]; 1.6% TWEEN 80 and 2.4% PEG 400 in water, aqueous with cosolvent or surfactant or cyclodextrin, 1.6% TWEEN 80 and 2.4% PEG 400 in water, read-out: solubility)?
A: 1400 µg/mL (≈ 3.37 mM)

Q: And the solubility ([3]; 40% TWEEN 80 and 60% PEG 400, organic solvent or mixture, 40% TWEEN 80 and 60% PEG 400, read-out: solubility)?
A: > 100000 µg/mL

Q: And the “amount of PEG 400 required to achieve 0.3 mg/mL” value ([3]; PEG 400/water co-solvent system, 0.3 mg/mL needed in infusion media for 15 mg dose)?
A: more than 30%

Q: And the solubility ([3]; about 0.4% TWEEN 80 and about 0.6% PEG 400 in water, aqueous with cosolvent or surfactant or cyclodextrin, about 0.4% TWEEN 80 and about 0.6% PEG 400 in water, read-out: solubility)?
A: 400 µg/mL (≈ 0.963 mM)

Q: What about the solubility ([3]; oil-in-water emulsion with 20% oil, oil or lipid, oil-in-water emulsion with 20% oil, read-out: solubility) of the same compound?
A: ≤ 5000 µg/mL

Q: And the solubility ([3]; safflower oil, oil or lipid, safflower oil, read-out: solubility in triglycerides)?
A: ~25000 µg/mL (≈ 60.2 mM)

Q: What about the solubility ([3]; water with 3.6% Captisol, aqueous with cosolvent or surfactant or cyclodextrin, water with 3.6% Captisol, read-out: solubility) of the same compound?
A: 1100 µg/mL (≈ 2.65 mM)

Q: And the solubility ([3]; water with 7% hydroxypropyl-β-cyclodextrin, aqueous with cosolvent or surfactant or cyclodextrin, water with 7% hydroxypropyl-β-cyclodextrin, read-out: solubility)?
A: 3200 µg/mL (≈ 7.7 mM)

Q: What about the solubility ([3]; water with 12% Captisol, aqueous with cosolvent or surfactant or cyclodextrin, water with 12% Captisol, read-out: solubility) of the same compound?
A: 3900 µg/mL (≈ 9.39 mM)

Q: And the solubility ([3]; water with 14% hydroxypropyl-β-cyclodextrin, aqueous with cosolvent or surfactant or cyclodextrin, water with 14% hydroxypropyl-β-cyclodextrin, read-out: solubility)?
A: 7400 µg/mL (≈ 17.8 mM)

Q: What about the solubility ([3]; water with 28% hydroxypropyl-β-cyclodextrin, aqueous with cosolvent or surfactant or cyclodextrin, water with 28% hydroxypropyl-β-cyclodextrin, read-out: solubility) of the same compound?
A: 18000 µg/mL (≈ 43.3 mM)

Q: What about the solubility ([3]; water with 36% Captisol, aqueous with cosolvent or surfactant or cyclodextrin, water with 36% Captisol, read-out: solubility) of the same compound?
A: 13700 µg/mL (≈ 33 mM)

Q: What about the water solubility ([3]; water, listed as compound of formula (I)) of the same compound?
A: about 0.01 mg/mL

Q: And the solubility ([3]; water, read-out: water solubility)?
A: 10 µg/mL (≈ 0.0241 mM)
